In patent publication US20160229847A1, “NOVEL BICYCLIC PYRIDINONES AS GAMMA-SECRETASE MODULATORS” (PFIZER INC., priority 2013, published 2016):
Structures can show the parent of a compound that is named as a salt. Where two headings read alike, the source gives them in different places.

Biological target: γ-secretase (Cricetulus griseus, UniProt G3HNF2)
Assay: Cell-Based γ-Secretase Assay with ELISA Readout (production of amyloid beta protein Aβ(1-42))
Details: human WT-APP overexpressing CHO cells, ~24 h incubation, Aβ(1-42) ELISA
[1] = read-out: Aβ 42B IC50 (nM) (Geometric Mean of 2-5 Determinations), Table 5, geometric mean of 2-5 determinations

Experimental: The ability of compounds to modulate production of amyloid beta protein Aβ(1-42) was determined using human WT-APP overexpressing CHO cells. Cells were plated at 22,000 cells/100 μL well in 96 well tissue culture treated, clear plates (Falcon) in DMEM/F12 based medium and incubated for 24 h at 37° C. […] Compounds were added in fresh medium to achieve 1% final DMSO. Appropriate vehicle or inhibitor controls were added into control wells individually to obtain minimum or maximum inhibition values, respectively, for the assay signal window before the plates were incubated for ˜24 h at 37° C. This procedure produces conditioned media in each well which is tested for Aβ(1-42) levels in the ELISA detection step described next. The remaining cell cultures in each well are also tested for cell toxicity as described below.
Coating of ELISA assay plates was initiated by addition of 50 μL/well of an in-house Aβ(1-42) specific antibody at (3 μg/mL) in 0.1 M NaHCO3 (pH 9.0) into black 384-well Maxisorp® plates (Nunc) and incubated overnight at 4° C. The capture antibody was then aspirated from the ELISA assay plates and plates were washed either 2×100 uL with a Matrical Squirt plate washer, or 3×90 uL with a Thermo Combi, using Wash Buffer (Dulbecco's PBS, 0.05% Tween 20). 90 μL/well of Blocking Buffer (Dulbecco's PBS, 1.0% BSA (Sigma A7030) was then added to plates. Ambient temperature incubation was allowed to proceed for a minimum of 2 h. Blocking buffer was then removed and 20 μL/well Assay Buffer (Dulbecco's PBS, 1.0% BSA (Sigma A7030), 0.05% Tween 20) was then added. At this point, 35 uL (40 uL prior to August, 2012) (in duplicate) of experimental conditioned media (described above) were transferred into wells of the blocked ELISA plates containing the capture antibody, followed by overnight incubation at 4° C. Cell toxicity was also measured in the corresponding remaining cells after removal of the conditioned media for the Aβ(1-42) assay by a colorimetric cell proliferation assay (CellTiter 96® AQueous One Solution Cell Proliferation Assay, Promega) according to the manufacturer's instructions.
After overnight incubation of the ELISA assay plates at 4° C., unbound Aβ peptides were removed via either 2×100 uL washes with a Matrical Squirt plate washer, or 3×90 uL washes with a Thermo Combi, using Wash Buffer. Europium (Eu) labeled (custom labeled, PerkinElmer) Aβ(1-16) 6e10 Monoclonal Antibody (Covance #SIG-39320) was added, (50 μL/well Eu-6e10 @ 1:10,000, 20 uM EDTA) in Assay Buffer. […] Following 30 to 60 min ambient temperature incubation, the plates were read on an EnVision plate reader (PerkinElmer) using standard DELFIA TRF settings. […]

Compound	IC50 [1] [nM]	IC50 (Table 5, footnote 1: single determination, read-out: Aβ 42B IC50 (nM), IC50 value is from a single determination) [nM]
Cc1cn(-c2ccc3n(c2=O)CCN(CC2(c4ccc(Cl)cc4)CC2)C3=O)cn1 [Example 17, 2-{[1-(4-chlorophenyl)cyclopropyl]methyl}-7-(4-methyl-1H-imidazol-1-yl)-3,4-dihydro-2H-pyrido[1,2-a]pyrazine-1,6-dione, trifluoroacetate salt]	410	
2-[(4′-fluorobiphenyl-3-yl)methyl]- 7-(4-methyl-1H-imidazol-1-yl)- 3,4-dihydro-2H-pyrido[1,2- a]pyrazine-1,6-dione, formate salt [Example 12]		83.4
2-[(7-chloro-6,8-dimethoxyquinolin-2- yl)methyl]-7-(4-methyl-1H-imidazol- 1-yl)-3,4-dihydro-2H-pyrido[1,2- a]pyrazine-1,6-dione [Example 87]	150	
Cc1cn(-c2ccc3n(c2=O)CCN(Cc2nc(C4(c5ccc(Cl)cc5)CCC4)no2)C3=O)cn1 [Example 18, 2-({3-[1-(4-chlorophenyl)cyclobutyl]-1,2,4-oxadiazol-5-yl}methyl)-7-(4-methyl-1H-imidazol-1-yl)-3,4-dihydro-2H-pyrido[1,2-a]pyrazine-1,6-dione, trifluoroacetate salt]	169	
